Reference: US6740671B2 (priority 2000, dated 2004)

Test: Foliar penetration of C14-labeled ethaboxam into cucumber
Type: in vivo
Conditions: cucumber foliage, 24 hours after spotting; result in words
Method: In order to investigate the relationship of the concentration of polyoxyalkylene alkyl ether and the foliar penetration of ethaboxam, foliar penetration experiment was carried out using radioisotope [C^14]-labeled ethaboxam as follows.
Cucumber seeds were sown in a horticultural bed soil of pots having a diameter of 6 cm and grown under glass for 3 weeks. 10 mg of the formulation prepared in the comparative example was diluted in 10 ml of tap water. 20 μl of the diluted solution was taken and thereto was added 1.0 μCi of ethaboxam labeled with C^14(81.7 μCi/mg) to prepare the diluted ethaboxam formulation labeled with C^14. […]
The plants were cut at a distance of 1 cm from the bottom of soil and the cuts were introduced into 250 ml Erlenmeyer flaska 50 ml of the mixed solution of acetonitrile and distilled water(volume ratio=1:4) was added thereto and then, the flask was plugged and shaken for 1 minute. Radioactivity of C^14-ethaboxam in the solution was measured with a liquid scintillation counter and the residue was combusted with a sample oxidizer to collect C^14-carbon dioxide, which was analyzed with the liquid scintillation counter.
Foliar penetration of ethaboxam is calculated by subtracting radioactivity in the solution from the total radioactivity, which is identical with radioactivity in the residue.

CCNc1nc(CC)c(C(=O)NC(C#N)c2cccs2)s1 (stereo not drawn) [ethaboxam, N-(α-cyano-2-thenyl)-4-ethyl-2-(ethylamino)-5-thiazolecarboxamide]
foliar penetration of ethaboxam: hardly penetrated into plants in the absence of adjuvant
